Measured values as given in the METLIN SMRT retention time set (Domingo-Almenara et al. 2019).

Assay: gradient 5% acetonitrile 3 min, to 50% in 2 min, to 85% in 15 min, held 3 min, 100 µL/min
Conditions: column: Zorbax Extend-C18 2.1 x 50 mm; eluents: water / acetonitrile, 0.1% formic acid
In short: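 Retention times of pure standards were taken from adduct peaks that were selected by computer and manually inspected. Over 3 months, mixtures of ~100 molecules were run by HPLC–quadrupole time-of-flight mass spectrometry in positive and negative ionization mode. The Zorbax Extend-C18 column (2.1 × 50 mm, 1.8 μm) ran at 100 μL/min in water and acetonitrile, each containing 0.1% formic acid, with 40 μL dead volume and 900 μL dwell volume.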

Structure (SMILES)	RP-LC retention time [s]
CC(C)c1noc(-c2ccnc(-n3cnc(C(=O)N4CCSCC4)c3)c2)n1	863
CCOc1ccc(N2CC(CNS(=O)(=O)c3ccccc3C(F)(F)F)CC2=O)cc1 (stereo not given)	824
CCn1cnc(S(=O)(=O)N2CCCC(C(=O)NCc3ccccc3C)C2)c1 (stereo not given)	726
CC1CCN(S(=O)(=O)N2CCC(C(=O)N3CCCC(Cc4nncn4CC4CC4)C3)CC2)CC1 (stereo not given)	678
Cc1cc(F)ccc1NC(=O)c1cc2n(n1)CC(C)(C(=O)NC1CCCCC1)N(C)C2=O (stereo not given)	776
CCN1C(=O)C2(CCN(S(=O)(=O)c3cccc(C)c3)CC2)c2ccccc21	1070
CC1CCCN(CC2CCN(S(=O)(=O)c3cc(F)cc(F)c3)CC2)C1 (stereo not given)	681
Cc1ccc(Sc2nccnc2N2CCCC(C(=O)NC3CCCCC3)C2)cc1 (stereo not given)	1150
COc1cccc(CNC(=O)CN2C(=O)C3CCCCN3c3ccc(S(=O)(=O)N(C)C)cc32)c1 (stereo not given)	887
CCCc1ccc(S(=O)(=O)N2CCN(c3cnn4c(C5CC5)nnc4c3)CC2)cc1	856
CCn1c(CNC(=O)C2CCC2)nc2c1CN(C(=O)c1ccc(OC)cc1)CC2	612
O=C(Nc1ccccc1)N1CCc2[nH]cnc2C1c1ccccn1 (stereo not given)	598
O=C(COc1ccc(F)cc1)NCC1(c2cccs2)CC1	882
Cn1cccc1C(=O)N1CCC(c2noc(-c3ccncc3)n2)C1 (stereo not given)	720
CCOCC(=O)N1CCCN(C2=NS(=O)(=O)C(c3ccc(C)cc3)=C2C)CC1	752
Cc1nn(-c2ccccc2)c(C)c1S(=O)(=O)N1CCC(C(=O)NCc2ccccc2Cl)CC1	963
COc1nn(C)cc1C(=O)NCC(c1ccco1)N1CCN(c2ccc(F)cc2)CC1 (stereo not given)	581
CCc1ccc(S(=O)(=O)N2CCC3(CC2)NCCN=C3NCc2cccc(OC)c2)cc1	775
Cc1ccc(OCC(=O)Nc2nc(-c3ccccc3)cs2)c(Br)c1	1310
CC(NC(=O)C1CCN(CCc2cn(C)c3ncccc23)CC1)c1ccccc1 (stereo not given)	644
O=C(Cc1ccc(F)cc1)NCCNc1cc(-n2cccn2)ncn1	652
CCCC(=O)N1CCc2c([nH]c3ccccc23)C1c1ccccc1 (stereo not given)	1080
Cc1ccc(NC(=O)Cn2cnc(C)c(C)c2=O)cc1	675

Structure (SMILES)	RP-LC retention time [s]
CCCNC(=O)C1CCN(Cc2cc3ccccc3n2Cc2cccc(Cl)c2)CC1	756
COc1cccc(N2CCN(C(=O)C3CCCN(c4cnc5nccnc5c4)C3)CC2)c1 (stereo not given)	737
Cc1nn2c(CNC(=O)C3CCC3)c(-c3ccccc3)nc2s1	743
CCOC(=O)c1ccc(NC(=O)Nc2c(-c3ccncc3)nc3ccccn23)cc1	631
CS(=O)(=O)N1CCCC(C(=O)NC2CC2)CCNC(=O)CC1 (stereo not given)	816
Cn1nc(C(=O)N2CCCC2)c2c1CCN(C(=O)CCC(=O)N1CCCCC1)C2	653
Cc1noc(-c2cccn2Cc2c(F)cccc2Cl)n1	1130
NC(=O)c1cc(N2CC2)c([N+](=O)[O-])cc1[N+](=O)[O-]	650
CN1CC=C(c2noc(CCC(=O)N3CCC(c4ccccc4)C3)n2)CC1 (stereo not given)	631
COc1ccc(S(=O)(=O)N2CCCC(C(=O)NCc3ccccn3)C2)cc1Cl (stereo not given)	838
O=C(CCc1ccc2c(c1)CN(S(=O)(=O)c1cccc3nsnc13)CCO2)NC1CC1	756
C=CCN1C(=O)COc2ccc(-c3nc(NC(=O)CC)sc3C)cc21	846
COC(=O)c1cc(S(=O)(=O)N2CCCC2C(=O)Nc2ccc(Br)cc2F)cn1C (stereo not given)	999
COCc1cn(C2CN(C(=O)c3cnc(C)cn3)C2)nn1	592
CCOc1ccc(C(=O)N2CCC3(CC2)NC(=O)c2ccc(F)cc2N3C)cc1	767
CN(C)C(=O)C1CCN(S(=O)(=O)Cc2ccc(Cl)cc2)CC1	746
O=C(Nc1ccc(F)c(C(F)(F)F)c1)C1COCC(=O)N1Cc1ccccc1 (stereo not given)	824
COc1ccc(CCNC(=O)CSc2ncnc3c2nnn3C)cc1OC	628
CCC(=O)N1CCN(c2nc3c(s2)CC(C(=O)NCc2cc(F)ccc2F)CC3)CC1 (stereo not given)	601
CCOc1ccc(NS(=O)(=O)c2cc(C(=O)N3CCN(c4ccccn4)CC3)n[nH]2)cc1	619
COCCNC(=O)C1CN(C(=O)c2ccco2)CC1c1ccc(OC)cc1OC (stereo not given)	922
COc1ccc(NC(=O)C2CCCN2S(=O)(=O)c2ccc(F)cc2)cc1 (stereo not given)	844
